What was measured:
TNF-alpha = assay: Anti-inflammatory in vitro study: TNF-alpha in reconstructed epidermis treated with SDS; type: cell-based; conditions: human reconstructed epidermis, 0.1% SDS, 24 hours incubation
Procedure: A human reconstructed epidermis is put in contact with the vegan nanofibres (topical application to mimic the real condition of use) and treated with an irritant inflammatory agent such as sodium dodecyl sulfate (SDS) to assess the capability of vegan nanofibers to counteract the inflammatory event. The evaluation is performed by using a non-treated epidermis as negative control and the epidermis treated only with the inflammatory agent (SDS) as a positive control. TNF-alpha is often associated with the inflammatory process and oxidative stress as an acute pro-inflammatory marker.

[1] = test system: human epidermal melanocytes; assay: Brightening in vitro study: melanin production of melanocytes; type: cell-based; conditions: kojic acid 42 μg/ml in cell culture, 96 hours incubation
Procedure: In vitro study is used to evaluate the brightening effect and is determined by analysing the melanin production of melanocytes. The level of melanin produced by melanocytes determines the colour of skin, therefore, the brightening effect can be evaluated by the impact of formulation on the melanin production of melanocytes. In this study, human epidermal melanocytes are utilised. Kojic acid, traditionally used as a brightening ingredient, is used as the positive control. Kojic add is prepared in 15% ethanol/Hanks balanced salt solution and added into cell culture to give final concentration of 42 μg/ml in cell culture. 0.8 cm circles of nanofibre is directly applied into the cell culture to give a final concentration of ethyl ascorbic add of 3 μg/ml in cell culture. FIG. 5 presents the result of melanin concentration in cells only, cells treated with kojic acid and cells treated with nanofibres after 96 hours incubation time.
The absorbance of each sample is read at 405 nm and then compared with a standard curve of synthetic melanin to estimate the concentration of melanin in the cell culture. […] The melanin concentration is 101.5 μg/ml in cells only, 101.1 μg/ml in cells with kojic add and 97.48 μg/ml in cells with nanofibres. […] This is probably due to the added kojic add concentration being very low. […]

Row | Compound | concentration of TNF-alpha (TNF-alpha) [µg/mL] | inhibition to melanin production [1] | melanin concentration [1] [µg/mL]
1 | CCCCCCCCCCCCOS(=O)(=O)[O-].[Na+] [SDS, sodium dodecyl sulfate] | 47.92 | – | –
2 | O=c1cc(CO)occ1O [kojic acid] | – | slight inhibition to melanin production, but is not statistically significant | 101.1

From patent US20220354752A1, “NANOFIBRE MATRIX MADE OF NATURAL POLYMERS WITH NATURAL FUNCTIONAL INGREDIENTS FOR COSMETIC PRODUCTS” (NANOLAYR LIMITED, priority 2019, published 2022)
